“Also recorded” adds a separate entry of the source.
System: α1G−/− transgenic mice
Test: Mobility in an open field after drug treatment (pharmacological analysis)
Format: in vivo, mouse
Details: 0.5 mg/kg injected into abdominal cavity, FIG. 8
Description: For reactivity test in an open field, a test animal was transferred to a test room one hour before the test began and each animal was put in an independent breeding cage for adaptation.
In order to investigate whether or not mobility increase of α1G−/− transgenic mice is related to diseases such as attention-deficit hyperactive disorder, schizophrenia, stereotype, etc., the present inventors have performed analysis of pharmacological effect of lithium and amphetamine which have been used as a therapeutic agent for the above diseases.
First, the effect of lithium and amphetamine on reactivity to a new subject was investigated. Particularly, one hour before exposing a test animal on an experimental device, lithium or amphetamine (0.5 mg/kg, injection 10 ml/kg) was injected into abdominal cavity of the animal. The test procedure was in accordance with that of reactivity test in an open field, but a breeding cage (24×18×13 cm) took the place of a white acryl open field in this example and a subject used was a styrofoam covered with 0.5 g aluminum foil and the size of which was 1.5×1.5×1.5 cm. Behavior of the animal was all recorded by a video camera for further analysis. Same standard and behavior index were used.

Structure (SMILES): CC(N)Cc1ccccc1 (centres unmarked) [amphetamine]
- early mobility increase of α1G−/− transgenic mice: not mitigated; also recorded: did not decrease
- non environment dependent mobility increase: over-induced; also recorded: increased excessively

From US7723562B2, “Mice lacking alpha 1G showing enhanced novelty-seeking and alcohol preference and therapeutic methods for mood disorders by modulating alpha 1G T-type calcium channels” (Korea Institute of Science and Technology, priority 2004, dated 2010)
